Results taken from the supplement of paper PMC10307832.

Columns and labels:
Experiment in all cases: relative viability (nuclei count vs DMSO), 5 days (fraction); higher = more cells survive
[1] = test system: HCC-15
In short: (§1)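 Lung cancer cell lines, seeded in 1536-well plates, were treated the following day by pin tool with a single drug or with five library-drug doses (not always all listed) in √10 steps on top of a fixed anchor-drug dose. Cells were fixed and nuclei stained in one step after 5 days, and nuclei were counted. Relative viability is the nuclei count for treated wells divided by that for vehicle wells, reported as medians of duplicate plates.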

[2] = test system: NCI-H1793
In short: as §1

[3] = test system: EKVX
In short: as §1

[4] = test system: SW 900
In short: as §1

[5] = test system: H3255
In short: as §1

[6] = test system: NCI-H522
In short: as §1

[7] = test system: NCI-H322M
In short: as §1

[8] = test system: ChaGo-K-1
In short: as §1

[9] = test system: LC-2-ad
In short: as §1

[10] = test system: NCI-H1792
In short: as §1

[11] = test system: EMC-BAC-2
In short: as §1

[12] = test system: NCI-H1993
In short: as §1

[13] = test system: NCI-H1915
In short: as §1

[14] = test system: HCC-827
In short: as §1

[15] = test system: PC-14
In short: as §1

[16] = test system: LCLC-97TM1
In short: as §1

[17] = test system: NCI-H23
In short: as §1

[18] = test system: NCI-H661
In short: as §1

[19] = test system: NCI-H1944
In short: as §1

[20] = test system: NCI-H460
In short: as §1

[21] = test system: SK-LU-1
In short: as §1

[22] = test system: EPLC-272H
In short: as §1

Question: `COCC1(CO)C(=O)C2CCN1CC2` (stereo unspecified) [PRIMA-1MET] + N=C(N)NC(=N)NCCc1ccccc1 [Phenformin] (partner 250 µM) was tested. Which relative viability ([1]; first compound 0.2 µM) did it give?
Answer: 0.427

Question: And the relative viability ([1]; first compound 0.6325 µM)?
Answer: 0.471

Question: And the relative viability ([1]; first compound 2 µM)?
Answer: 0.439

Question: What about the relative viability ([1]; first compound 6.325 µM) of the same compound?
Answer: 0.451

Question: What about the relative viability ([1]; first compound 20 µM) of the same compound?
Answer: 0.172

Question: What about the relative viability ([2]; first compound 0.2 µM) of the same compound?
Answer: 0.465

Question: What about the relative viability ([2]; first compound 0.6325 µM) of the same compound?
Answer: 0.32

Question: And the relative viability ([2]; first compound 6.325 µM)?
Answer: 0.444

Question: What about the relative viability ([2]; first compound 20 µM) of the same compound?
Answer: 0.326

Question: What about the relative viability ([3]; first compound 0.2 µM) of the same compound?
Answer: 0.219

Question: And the relative viability ([3]; first compound 0.6325 µM)?
Answer: 0.221

Question: And the relative viability ([3]; first compound 6.325 µM)?
Answer: 0.217

Question: And the relative viability ([3]; first compound 20 µM)?
Answer: 0.222

Question: And the relative viability ([4]; first compound 0.2 µM)?
Answer: 0.665

Question: And the relative viability ([4]; first compound 0.6325 µM)?
Answer: 0.61

Question: What about the relative viability ([4]; first compound 2 µM) of the same compound?
Answer: 0.492

Question: What about the relative viability ([4]; first compound 6.325 µM) of the same compound?
Answer: 0.0861

Question: And the relative viability ([4]; first compound 20 µM)?
Answer: 0.105

Question: And the relative viability ([5]; first compound 0.2 µM)?
Answer: 0.458

Question: What about the relative viability ([5]; first compound 0.6325 µM) of the same compound?
Answer: 0.335

Question: What about the relative viability ([5]; first compound 2 µM) of the same compound?
Answer: 0.36

Question: And the relative viability ([5]; first compound 6.325 µM)?
Answer: 0.374

Question: What about the relative viability ([5]; first compound 20 µM) of the same compound?
Answer: 0.293

Question: What about the relative viability ([6]; first compound 0.2 µM) of the same compound?
Answer: 0.626

Question: And the relative viability ([6]; first compound 0.6325 µM)?
Answer: 0.459

Question: And the relative viability ([6]; first compound 2 µM)?
Answer: 0.534

Question: And the relative viability ([6]; first compound 6.325 µM)?
Answer: 0.619

Question: What about the relative viability ([6]; first compound 20 µM) of the same compound?
Answer: 0.142

Question: And the relative viability ([7]; first compound 0.2 µM)?
Answer: 0.869

Question: And the relative viability ([7]; first compound 0.6325 µM)?
Answer: 0.549

Question: What about the relative viability ([7]; first compound 6.325 µM) of the same compound?
Answer: 0.804

Question: What about the relative viability ([7]; first compound 20 µM) of the same compound?
Answer: 0.0578

Question: What about the relative viability ([8]; first compound 0.2 µM) of the same compound?
Answer: 0.481

Question: And the relative viability ([8]; first compound 0.6325 µM)?
Answer: 0.439

Question: What about the relative viability ([8]; first compound 2 µM) of the same compound?
Answer: 0.514

Question: What about the relative viability ([8]; first compound 6.325 µM) of the same compound?
Answer: 0.503

Question: What about the relative viability ([8]; first compound 20 µM) of the same compound?
Answer: 0.459

Question: What about the relative viability ([9]; first compound 0.2 µM) of the same compound?
Answer: 0.548

Question: And the relative viability ([9]; first compound 2 µM)?
Answer: 0.49

Question: And the relative viability ([9]; first compound 6.325 µM)?
Answer: 0.568

Question: What about the relative viability ([9]; first compound 20 µM) of the same compound?
Answer: 0.36

Question: What about the relative viability ([10]; first compound 0.2 µM) of the same compound?
Answer: 0.352

Question: And the relative viability ([10]; first compound 0.6325 µM)?
Answer: 0.272

Question: And the relative viability ([10]; first compound 6.325 µM)?
Answer: 0.238

Question: And the relative viability ([10]; first compound 20 µM)?
Answer: 0.319

Question: And the relative viability ([11]; first compound 0.2 µM)?
Answer: 0.642

Question: What about the relative viability ([11]; first compound 0.6325 µM) of the same compound?
Answer: 0.564

Question: What about the relative viability ([11]; first compound 6.325 µM) of the same compound?
Answer: 0.609

Question: What about the relative viability ([11]; first compound 20 µM) of the same compound?
Answer: 0.352

Question: What about the relative viability ([12]; first compound 0.2 µM) of the same compound?
Answer: 0.503

Question: What about the relative viability ([12]; first compound 0.6325 µM) of the same compound?
Answer: 0.526

Question: And the relative viability ([12]; first compound 2 µM)?
Answer: 0.496

Question: What about the relative viability ([12]; first compound 6.325 µM) of the same compound?
Answer: 0.544

Question: What about the relative viability ([12]; first compound 20 µM) of the same compound?
Answer: 0.57

Question: What about the relative viability ([13]; first compound 0.2 µM) of the same compound?
Answer: 0.44

Question: What about the relative viability ([13]; first compound 0.6325 µM) of the same compound?
Answer: 0.345

Question: And the relative viability ([13]; first compound 6.325 µM)?
Answer: 0.399

Question: What about the relative viability ([13]; first compound 20 µM) of the same compound?
Answer: 0.353

Question: And the relative viability ([14]; first compound 0.2 µM)?
Answer: 0.433

Question: And the relative viability ([14]; first compound 0.6325 µM)?
Answer: 0.416

Question: And the relative viability ([14]; first compound 2 µM)?
Answer: 0.344

Question: And the relative viability ([14]; first compound 6.325 µM)?
Answer: 0.367

Question: What about the relative viability ([14]; first compound 20 µM) of the same compound?
Answer: 0.372

Question: What about the relative viability ([15]; first compound 0.2 µM) of the same compound?
Answer: 0.621

Question: And the relative viability ([15]; first compound 0.6325 µM)?
Answer: 0.503

Question: What about the relative viability ([15]; first compound 2 µM) of the same compound?
Answer: 0.735

Question: And the relative viability ([15]; first compound 6.325 µM)?
Answer: 0.379

Question: And the relative viability ([15]; first compound 20 µM)?
Answer: 0.0559

Question: And the relative viability ([16]; first compound 0.2 µM)?
Answer: 0.436

Question: And the relative viability ([16]; first compound 0.6325 µM)?
Answer: 0.437

Question: And the relative viability ([16]; first compound 2 µM)?
Answer: 0.484

Question: What about the relative viability ([16]; first compound 6.325 µM) of the same compound?
Answer: 0.448

Question: What about the relative viability ([16]; first compound 20 µM) of the same compound?
Answer: 0.347

Question: And the relative viability ([17]; first compound 0.2 µM)?
Answer: 0.854

Question: What about the relative viability ([17]; first compound 0.6325 µM) of the same compound?
Answer: 0.772

Question: And the relative viability ([17]; first compound 2 µM)?
Answer: 0.822

Question: And the relative viability ([17]; first compound 6.325 µM)?
Answer: 0.842

Question: And the relative viability ([17]; first compound 20 µM)?
Answer: 0.561

Question: What about the relative viability ([18]; first compound 0.2 µM) of the same compound?
Answer: 0.304

Question: What about the relative viability ([18]; first compound 0.6325 µM) of the same compound?
Answer: 0.261

Question: And the relative viability ([18]; first compound 2 µM)?
Answer: 0.274

Question: And the relative viability ([18]; first compound 6.325 µM)?
Answer: 0.288

Question: What about the relative viability ([18]; first compound 20 µM) of the same compound?
Answer: 0.292

Question: And the relative viability ([19]; first compound 0.2 µM)?
Answer: 0.215

Question: What about the relative viability ([19]; first compound 0.6325 µM) of the same compound?
Answer: 0.189

Question: And the relative viability ([19]; first compound 2 µM)?
Answer: 0.155

Question: What about the relative viability ([19]; first compound 6.325 µM) of the same compound?
Answer: 0.201

Question: What about the relative viability ([19]; first compound 20 µM) of the same compound?
Answer: 0.214

Question: What about the relative viability ([20]; first compound 0.2 µM) of the same compound?
Answer: 0.658

Question: What about the relative viability ([20]; first compound 0.6325 µM) of the same compound?
Answer: 0.495

Question: What about the relative viability ([20]; first compound 2 µM) of the same compound?
Answer: 0.481

Question: And the relative viability ([20]; first compound 6.325 µM)?
Answer: 0.042

Question: What about the relative viability ([20]; first compound 20 µM) of the same compound?
Answer: 0.0117

Question: What about the relative viability ([21]; first compound 0.2 µM) of the same compound?
Answer: 0.545

Question: What about the relative viability ([21]; first compound 0.6325 µM) of the same compound?
Answer: 0.559

Question: And the relative viability ([21]; first compound 2 µM)?
Answer: 0.326

Question: What about the relative viability ([21]; first compound 6.325 µM) of the same compound?
Answer: 0.606

Question: And the relative viability ([21]; first compound 20 µM)?
Answer: 0.0941

Question: What about the relative viability ([22]; first compound 2 µM) of the same compound?
Answer: 0.286

Question: And the relative viability ([22]; first compound 6.325 µM)?
Answer: 0.314

Question: What about the relative viability ([22]; first compound 20 µM) of the same compound?
Answer: 0.085
